Drawing on the METLIN SMRT retention time set (Domingo-Almenara et al. 2019), this text covers RP-LC retention time for 60 molecules.

The series can be described thus: gradient 5% acetonitrile 3 min, to 50% in 2 min, to 85% in 15 min, held 3 min, 100 µL/min. The note with it: column: Zorbax Extend-C18 2.1 x 50 mm; eluents: water / acetonitrile, 0.1% formic acid. In outline: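 Pure standards were analyzed in mixtures of ~100 molecules using HPLC coupled to a quadrupole time-of-flight mass spectrometer, in both positive and negative ionization mode. Separation used a Zorbax Extend-C18 column (2.1 × 50 mm, 1.8 μm) at 100 μL/min, with water and acetonitrile each containing 0.1% formic acid. Dead and dwell volumes were 40 μL and 900 μL, and data were collected over 3 months. Retention time was read from computationally picked adduct peaks, each inspected manually.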
For `Cc1ccc(-c2noc(-c3cccc(S(=O)(=O)Nc4cccc(C#N)c4)c3)n2)cc1`, the RP-LC retention time was found to be 1160 s.

The molecule `O=C1CC(c2cc(F)cc(F)c2)Cc2nc(N3CCN(c4ccccc4)CC3)ncc21` (stereo not given) gave an RP-LC retention time of 1270 s.

For the molecule `COc1ccc(NS(=O)(=O)c2cc3c(s2)CCN(C(=O)C2CCC2)C3)cc1`, the RP-LC retention time was 831 s.

As to `O=C1COc2ccccc2N1Cc1nc(-c2ccccc2)no1`, the RP-LC retention time was 971 s.

As to `CC1=NN(c2ccccc2)C(=O)C1C(=O)c1ccccc1Br` (stereo not given), the RP-LC retention time was 1040 s.

Turning to `Cc1ccccc1S(=O)(=O)N1CCCC(CCC(=O)NCC2CCCCC2)C1` (stereo not given), the RP-LC retention time was 580 s.

In turn, `N#Cc1cccc(CN2CCC(c3nncn3-c3ccccc3)CC2)c1` showed an RP-LC retention time of 584 s.

With `COc1ccccc1N1CCN([C@H]2CS(=O)(=O)C[C@@H]2S(=O)(=O)c2ccc(F)c(C)c2)CC1`, the RP-LC retention time was found to be 864 s.

With `CCc1nnc(NC(=O)C2CCN(C(=O)c3ccc(F)cc3)CC2)s1`, the RP-LC retention time turned out to be 679 s.

`NS(=O)(=O)c1ccc(CCNS(=O)(=O)c2ccc(-c3cc(C(F)(F)F)on3)o2)cc1` came in with an RP-LC retention time of 874 s.

`Cc1ccc(CNC(=O)CCc2nc3c(C)cccc3c(=O)n2C)cc1C` returned an RP-LC retention time of 892 s.

`O=C(NC1CCCCC1)c1ccc(CN2CCN(Cc3ccc(F)cc3)C(=O)C2=O)cc1` had an RP-LC retention time of 783 s.

On to `CCCc1cc(NC)n2ncc(-c3ccccc3)c2n1`, for which the RP-LC retention time stood at 683 s.

`O=C(NCc1cccs1)c1cc2n(n1)CCCC2` gave an RP-LC retention time of 753 s.

As to `CCOC(=O)c1[nH]c(C)c(CCC(=O)N2CCC(C(=O)N3CCCCC3)CC2)c1C`, the RP-LC retention time was 737 s.

`CCn1c(N2CCCC(C(=O)NCc3ccc(SC)cc3)C2)cc(=O)n(C)c1=O` (stereo not given) returned an RP-LC retention time of 809 s.

Turning to `OCCNCc1ccc(-c2cccc(C(F)(F)F)c2)o1`, the RP-LC retention time was found to be 649 s.

In turn, `COC(=O)c1c(C)[nH]c(C(=O)N2CCCC(C(=O)NCCCc3ccccc3)C2)c1C` (stereo not given) yielded an RP-LC retention time of 800 s.

`O=C(CC1C(=O)NCCN1C(=O)CN1CCN(c2ccccn2)CC1)Nc1ccccc1` (stereo not given): the RP-LC retention time came out at 565 s.

`COC(=O)c1c(C)[nH]c(C(=O)N2CCCC(C(=O)NCCc3ccco3)C2)c1C` (stereo not given) came in with an RP-LC retention time of 698 s.

The molecule `Cc1csc(NC(=O)CSc2ccc(-c3cccs3)nn2)n1` gave an RP-LC retention time of 750 s.

In turn, `CCc1nnc(NS(=O)(=O)c2ccc(NC(=O)c3ccc(Cl)s3)cc2)s1` yielded an RP-LC retention time of 821 s.

`CCC(=O)N1CCCc2cc(NC(=O)COc3ccc(F)cc3)ccc21` showed an RP-LC retention time of 850 s.

For `O=C(Cn1c(=O)c2cccn2c2ccc(F)cc21)Nc1ccccc1F`, the RP-LC retention time worked out at 858 s.

For `CCOC(=O)c1oc2ccccc2c1NC(=O)c1ccccc1S(C)(=O)=O`, the RP-LC retention time was determined as 800 s.

The molecule `COC(=O)c1c(C)[nH]c(C(=O)N2CCCC(C(=O)NCc3cccc(Cl)c3)C2)c1C` (stereo not given) showed an RP-LC retention time of 798 s.

Take `CCn1c(=O)c2cc(C(=O)Nc3ccc4c(c3)CCC4)nn2c2ccccc21`: the RP-LC retention time was 1090 s.

`COc1ccc(-c2cc(N3CCN(C(=O)c4ccc(Br)o4)CC3)ncn2)cc1` displayed an RP-LC retention time of 591 s.

As to `Cc1cc2cc(CNC(=O)C(=O)c3c[nH]c4ccccc34)ccc2[nH]1`, the RP-LC retention time turned out to be 878 s.

In the case of `Fc1cccc(CNc2nnc(-c3nnc(C4CC4)o3)c3ccccc23)c1`, the RP-LC retention time came to 933 s.

Regarding `CC(=O)N1C[C@@H]2CCCN3CCC[C@@H]([C@H]23)[C@H]1CCCC(=O)NCC(C)C`, the RP-LC retention time was found to be 577 s.

In turn, `C[C@H](NCc1ccc(OCc2cccc(F)c2)cc1)C(N)=O` showed an RP-LC retention time of 708 s.

As to `COc1ccc2c(CCN)c[nH]c2c1`, the RP-LC retention time stood at 565 s.

The molecule `c1ccc(Cc2nn3c(CSc4ccccc4)nnc3s2)cc1` displayed an RP-LC retention time of 927 s.

Molecule `O=C(CN1C(=O)CCS(=O)(=O)c2ccccc21)Nc1cccc(C(F)(F)F)c1` came in with an RP-LC retention time of 849 s.

Turning to `CSc1nc(NCCN(C)C)c(C#N)c(-c2ccccc2)n1`, the RP-LC retention time was determined as 642 s.

Consider `Cc1ccc(CNC(=O)C2CCN(c3cn[nH]c(=O)c3)CC2)cc1`, for which the RP-LC retention time is 644 s.

`COc1ccc2c(c1)C1(CCN(C(=O)NCCC(C)C)C1)C(=O)N2C` (stereo not given) gave an RP-LC retention time of 770 s.

In turn, `CCOC(=O)c1nc(NCC2CCN(Cc3ccccc3C)CC2)c2c(C)noc2n1` showed an RP-LC retention time of 738 s.

In turn, `Cc1nn(CC(=O)NCCN2CCOCC2)c(=O)c2c(-n3cccc3)n(-c3ccc(F)cc3)nc12` registered an RP-LC retention time of 654 s.

In the case of `CC(C)n1cnc(S(=O)(=O)N2CCC(C(=O)N3CCN(c4ccccc4)CC3)CC2)c1`, the RP-LC retention time came to 754 s.

Consider `O=C1COc2ccccc2N1Cc1nc(-c2cccc(Br)c2)no1`, for which the RP-LC retention time was determined as 1120 s.

Molecule `CCn1cnc2cc(CNC(=O)c3ccsc3)ccc21` displayed an RP-LC retention time of 572 s.

Molecule `CCc1nnc(C2CN(C)CC23CCN(S(=O)(=O)c2ccc(F)c(C)c2)CC3)o1` (stereo not given) had an RP-LC retention time of 634 s.

`CCCOc1nccnc1N1CCC(NC(=O)c2ccoc2)C1` (stereo not given) displayed an RP-LC retention time of 585 s.

For the molecule `O=C1CC(c2noc(-c3ccccc3F)n2)CN1c1ccc(Cl)cc1` (stereo not given), the RP-LC retention time amounted to 1010 s.

For `COc1ccc(-c2cc(OC)c3cc(NC(=O)c4cccs4)ccc3n2)cc1`, the RP-LC retention time amounted to 726 s.

Turning to `CCCNC(=O)c1nc2ccccn2c1-c1ccc(F)cc1`, the RP-LC retention time was 730 s.

The molecule `Cc1cccc(NC(=O)COc2cc(C)nc(N3CCN(c4ccccc4)CC3)n2)c1` came in with an RP-LC retention time of 856 s.

For `CNC(=O)[C@@H]1C[C@H](Oc2ccccc2)CN1C(=O)c1ccoc1`, the RP-LC retention time was 666 s.

For the molecule `O=C(C1CCN(S(=O)(=O)c2ccc(-c3noc(C4CCCCC4)n3)cc2)CC1)N1CCCC1`, the RP-LC retention time is 836 s.

On to `COc1ccc(OC)c(NC(=O)CSc2nccc(N3CCN(c4cc(C)ccc4C)CC3)n2)c1`, for which the RP-LC retention time stood at 1010 s.

Regarding `O=C(NCC1CN(c2ccc3c(c2)OCO3)C(=O)O1)Nc1ccccc1C(F)(F)F` (stereo not given), the RP-LC retention time came to 768 s.

In turn, `O=S(=O)(c1ccc2c(c1)CCCC2)N1CCCC1c1nc(-c2cccc(F)c2)no1` (stereo not given) showed an RP-LC retention time of 1330 s.

For the molecule `Cc1cccc(CS(=O)(=O)N(CCc2cccs2)Cc2cccnc2)c1`, the RP-LC retention time worked out at 691 s.

The molecule `O=C(CN1CCN(Cc2ccccc2F)C1=O)NCc1ccccc1Br` registered an RP-LC retention time of 853 s.

The molecule `COc1cccc2c1cc1c(=O)n(CC(=O)N3CCN(c4ccccn4)CC3)nc(C)n12` displayed an RP-LC retention time of 591 s.

`O=C(Cn1cccc1-c1nc(-c2ccc(Cl)cc2)cs1)NCCCN1CCCC1`: the RP-LC retention time is 826 s.

In the case of `CCCC(NC(=O)c1cccc(F)c1)C(=O)Nc1nc2ccccc2[nH]1` (stereo not given), the RP-LC retention time is 693 s.

Molecule `Cc1ccc(NC(=O)Cn2nc(N(C)C)c3ccccc3c2=O)c(C)c1` displayed an RP-LC retention time of 869 s.
